Columns and labels:
[1] = system: HCV genotype 1a (H77 strain) replicon in HUH-7 cells; assay: HCV replicon luciferase reporter assay, genotype 1a; format: cell-based; details: Hepatitis C virus, 72 h, genotype 1a replicon, 3 days incubation, read-out: LE_1a (EC50, range)
Source text: (§1) An HCV replicon whole cell system was established as described by Lohmann V, Korner F, Koch J, Herian U, Theilmann L, Bartenschlager R., Science 285(5424):110-3 (1999) and modified to introduce a luciferase reporter, as first described by Krieger et al (Krieger N, Lohmann V, and Bartenschlager R, J. Virol. 75(10):4614-4624 (2001)). CDNA encoding a humanized form of the Renilla luciferase gene and a linker sequence fused directly to the 3′-end of the luciferase gene were introduced into the replicon construct using an Ascl restriction site located in core, directly upstream of the neomycin marker gene. The adaptive mutation at position 1179 (serine to isoleucine) was also introduced (Blight K J, Kolykhalov, A A, Rice, C M, Science 290(5498):1972-1974). A stable cell line constitutively expressing this HCV replicon construct was generated by first linearizing plasmid DNAs with ScaI. RNA transcripts were synthesized in vitro using the T7 MegaScript transcription kit (Ambion, Austin, Tex.) according to manufacturer's directions. In vitro transcripts of the cDNA were transfected into the human hepatoma cell line, HUH-7. […] Resulting cell lines were characterized for positive and negative strand RNA production and protein production over time.
A stable HCV replicon luciferase reporter cell line representing the genotype 1a H77 strain (Yanagi M, Purcell R H, Emerson S U, et al. Transcripts from a single full-length cDNA clone of hepatitis C virus are infectious when directly transfected into the liver of a chimpanzee. Proc Natl Acad Sci USA 1997; 94(16):8738-8743) was generated as described previously for the genotype 1b(Con1) replicon luciferase cell line. The replicon construct was modified by introducing mutations were introduced into the genes encoding the NS3 helicase domain (proline replaced by leucine at position 1496) and NS5A (serine to isoleucine at position 2204) to improve replication in cell culture.
(§2) HCV replicon luciferase assays were developed to monitor the inhibitory effects of compounds described in the disclosure on HCV genotypes 1a and 1b viral replication. HUH-7 cells, constitutively expressing the HCV replicon, were grown in Dulbecco's Modified Eagle Media (DMEM) (Gibco-BRL) containing 10% Fetal calf serum (FCS) (Sigma) and 1 mg/mL G418 (Gibco-BRL). Compounds were serially diluted 3 folds in DMSO for a twenty-point titration and subsequently transferred to sterile 384-well tissue-culture treated plates (Corning cat #3571). The plates were then seeded with 50 μL of cells at a density of 3.0×10^3 cells/well in DMEM containing 4% FCS (final DMSO concentration at 0.5%). After 3 days incubation at 37° C., cells were analyzed for Renilla Luciferase activity using the EnduRen as substrate (Promega cat #E6485). The EnduRen substrate was diluted in DMEM and then added to the plates to a final concentration of 7.5 μM. The plates were incubated for 2 hrs at 37° C. and then read immediately for 30 seconds with Viewlux Imager (PerkinElmer) using a luminescence program. To assess cytotoxicity of compounds, CC50 values were generated by multiplexing the EnduRen-containing plates with Cell Titer-Blue (Promega, cat # G8082). Cell-Titer Blue (3 μL) was added to each well and incubated for 8 hrs at 37° C. The fluorescence signal from each well was read, with an excitation wavelength at 525/10 nm and an emission wavelength of 598/10 nm, using the Viewlux Imager.
(§3) The EC50 values for compounds were calculated by using a four-parameter logistic equation: y=A+((B−A)/(1+((C/x)^D))), where A and B denotes minimal and maximal % inhibition, respectively, C is the EC50, D is the hill slope and x represents compound concentration.

[2] = system: HCV genotype 1b (Con1) replicon in HUH-7 cells; assay: HCV replicon luciferase reporter assay, genotype 1b; format: cell-based; details: Hepatitis C virus, 72 h, genotype 1b replicon, 3 days incubation, read-out: LE_1b (EC50, range)
Source text: as §1, §2, §3

COc1cc(F)cc2c(O[C@@H]3C[C@H]4C(=O)N[C@]5(C(=O)NS(=O)(=O)C6(C)CC6)C[C@H]5/C=C\CC[C@@H](C)O[C@@H](C)[C@H](NC(=O)OC(C)(C)C(F)F)C(=O)N4C3)nccc12 [Compound 2019, 1,1-difluoro-2-methylpropan-2-yl ((2R,6S,7S,9R,13aS,14aR,16aS,Z)-2-((7-fluoro-5-methoxyisoquinolin-1-yl)oxy)-7,9-dimethyl-14a-(((1-methylcyclopropyl)sulfonyl)carbamoyl)-5,16-dioxo-2,3,5,6,7,9,10,11,13a,14,14a,15,16,16a-tetradecahydro-1H-cyclopropa[i]pyrrolo[1,2-e][1,5,8]oxadiazacyclopentadecin-6-yl)carbamate]
EC50 [1]: 1.01 to 5 nM | EC50 [2]: 0.51 to 1 nM

CC[C@@H]1OCCC/C=C\[C@@H]2C[C@@]2(C(=O)NS(=O)(=O)C2(C)CC2)NC(=O)[C@@H]2C[C@@H](Oc3nc(OC)cc4cc(OC)ccc34)CN2C(=O)[C@H]1NC(=O)OC(C)(C)C(F)(F)F [Compound 1010, 1,1,1-trifluoro-2-methylpropan-2-yl ((2R,6S,7S,13aS,14aR,16aS,Z)-2-((3,6-dimethoxyisoquinolin-1-yl)oxy)-7-ethyl-14a-(((1-methylcyclopropyl)sulfonyl)carbamoyl)-5,16-dioxo-2,3,5,6,7,9,10,11,13a,14,14a,15,16,16a-tetradecahydro-1H-cyclopropa[i]pyrrolo[1,2-e][1,5,8]oxadiazacyclopentadecin-6-yl)carbamate]
EC50 [1]: 0.51 to 1 nM | EC50 [2]: 1.01 to 5 nM

C[C@@H]1CC/C=C\[C@@H]2C[C@@]2(C(=O)NS(=O)(=O)C2(C)CC2)NC(=O)[C@@H]2C[C@@H](Oc3nc4c(c5ccccc35)CCCO4)CN2C(=O)[C@@H](NC(=O)OC(C)(C)C(C)(F)F)[C@H](C)O1 [Compound 2303, 3,3-difluoro-2-methylbutan-2-yl ((2R,6S,7S,9R,13aS,14aR,16aS,Z)-2-((2,3-dihydro-1H-pyrano[2,3-c]isoquinolin-6-yl)oxy)-7,9-dimethyl-14a-(((1-methylcyclopropyl)sulfonyl)carbamoyl)-5,16-dioxo-2,3,5,6,7,9,10,11,13a,14,14a,15,16,16a-tetradecahydro-1H-cyclopropa[i]pyrrolo[1,2-e][1,5,8]oxadiazacyclopentadecin-6-yl)carbamate]
EC50 [1]: 0.51 to 1 nM | EC50 [2]: 0.51 to 1 nM

COc1cnc(O[C@@H]2C[C@H]3C(=O)N[C@]4(C(=O)NS(=O)(=O)C5(C)CC5)C[C@H]4/C=C\CC[C@@H](C)O[C@@H](C)[C@H](NC(=O)OC(C)(C)C(C)(F)F)C(=O)N3C2)c2cc(F)ccc12 [Compound 2008, 3,3-difluoro-2-methylbutan-2-yl ((2R,6S,7S,9R,13aS,14aR,16aS,Z)-2-((7-fluoro-4-methoxyisoquinolin-1-yl)oxy)-7,9-dimethyl-14a-(((1-methylcyclopropyl)sulfonyl)carbamoyl)-5,16-dioxo-2,3,5,6,7,9,10,11,13a,14,14a,15,16,16a-tetradecahydro-1H-cyclopropa[i]pyrrolo[1,2-e][1,5,8]oxadiazacyclopentadecin-6-yl)carbamate]
EC50 [1]: 0.51 to 1 nM | EC50 [2]: 0.1 to 0.5 nM

CC[C@@H]1O[C@H](C)CC/C=C\[C@@H]2C[C@@]2(C(=O)NS(=O)(=O)C2(C)CC2)NC(=O)[C@@H]2C[C@@H](Oc3ncc(OC)c4ccccc34)CN2C(=O)[C@H]1NC(=O)OC(C)(C)C(F)(F)F [Compound 1003]
EC50 [1]: 0.51 to 1 nM | EC50 [2]: 0.1 to 0.5 nM

CC[C@@H]1O[C@H](C)CC/C=C\[C@@H]2C[C@@]2(C(=O)NS(=O)(=O)C2(CF)CC2)NC(=O)[C@@H]2C[C@@H](Oc3ncc(OC)c4ccccc34)CN2C(=O)[C@H]1NC(=O)OC(C)(C)C(F)(F)F [Compound 1014]
EC50 [1]: 1.01 to 5 nM | EC50 [2]: 1.01 to 5 nM

CC[C@@H]1O[C@H](C)CC/C=C\[C@@H]2C[C@@]2(C(=O)NS(=O)(=O)C2CC2)NC(=O)[C@@H]2C[C@@H](Oc3nccc4cc(OC)ccc34)CN2C(=O)[C@H]1NC(=O)OC(C)(C)C(F)(F)F [Compound 1007, 1,1,1-trifluoro-2-methylpropan-2-yl ((2R,6S,7S,9R,13aS,14aR,16aS,Z)-14a-((cyclopropylsulfonyl)carbamoyl)-7-ethyl-2-((6-methoxyisoquinolin-1-yl)oxy)-9-methyl-5,16-dioxo-2,3,5,6,7,9,10,11,13a,14,14a,15,16,16a-tetradecahydro-1H-cyclopropa[i]pyrrolo[1,2-e][1,5,8]oxadiazacyclopentadecin-6-yl)carbamate]
EC50 [1]: 1.01 to 5 nM | EC50 [2]: 0.51 to 1 nM

COc1cc(F)cc2c(O[C@@H]3C[C@H]4C(=O)N[C@]5(C(=O)NS(=O)(=O)C6(CF)CC6)C[C@H]5/C=C\CC[C@@H](C)O[C@@H](C)[C@H](NC(=O)OC(C)(C)C(C)(F)F)C(=O)N4C3)nccc12 [Compound 2021, 3,3-difluoro-2-methylbutan-2-yl ((2R,6S,7S,9R,13aS,14aR,16aS,Z)-2-((7-fluoro-5-methoxyisoquinolin-1-yl)oxy)-14a-(((1-(fluoromethyl)cyclopropyl)sulfonyl)carbamoyl)-7,9-dimethyl-5,16-dioxo-2,3,5,6,7,9,10,11,13a,14,14a,15,16,16a-tetradecahydro-1H-cyclopropa[i]pyrrolo[1,2-e][1,5,8]oxadiazacyclopentadecin-6-yl)carbamate]
EC50 [1]: 1.01 to 5 nM | EC50 [2]: 0.51 to 1 nM

COc1ccc2c(O[C@@H]3C[C@H]4C(=O)N[C@]5(C(=O)NS(=O)(=O)C6(C)CC6)C[C@H]5/C=C\CC[C@@H](C)O[C@@H](C)[C@H](NC(=O)OC(C)(C)C(C)(F)F)C(=O)N4C3)nc3c(c2c1)CCCO3 [Compound 2309, 3,3-difluoro-2-methylbutan-2-yl ((2R,6S,7S,9R,13aS,14aR,16aS,Z)-2-((9-methoxy-2,3-dihydro-1H-pyrano[2,3-c]isoquinolin-6-yl)oxy)-7,9-dimethyl-14a-(((1-methylcyclopropyl)sulfonyl)carbamoyl)-5,16-dioxo-2,3,5,6,7,9,10,11,13a,14,14a,15,16,16a-tetradecahydro-1H-cyclopropa[i]pyrrolo[1,2-e][1,5,8]oxadiazacyclopentadecin-6-yl)carbamate]
EC50 [1]: 0.51 to 1 nM | EC50 [2]: 0.51 to 1 nM

CC[C@@H]1O[C@H](C)CC/C=C\[C@@H]2C[C@@]2(C(=O)NS(=O)(=O)C2(C)CC2)NC(=O)[C@@H]2C[C@@H](Oc3nc4c(c5ccccc35)CCCO4)CN2C(=O)[C@H]1NC(=O)OC(C)(C)C(C)(F)F [Compound 2301, 3,3-difluoro-2-methylbutan-2-yl ((2R,6S,7S,9R,13aS,14aR,16aS,Z)-2-((2,3-dihydro-1H-pyrano[2,3-c]isoquinolin-6-yl)oxy)-7-ethyl-9-methyl-14a-(((1-methylcyclopropyl)sulfonyl)carbamoyl)-5,16-dioxo-2,3,5,6,7,9,10,11,13a,14,14a,15,16,16a-tetradecahydro-1H-cyclopropa[i]pyrrolo[1,2-e][1,5,8]oxadiazacyclopentadecin-6-yl)carbamate]
EC50 [1]: 0.51 to 1 nM | EC50 [2]: 0.1 to 0.5 nM

COc1cc2ccnc(O[C@@H]3C[C@H]4C(=O)N[C@]5(C(=O)NS(=O)(=O)C6(C)CC6)C[C@H]5/C=C\CC[C@@H](C)O[C@@H](C)[C@H](NC(=O)OC(C)(C)C(C)(F)F)C(=O)N4C3)c2cc1F [Compound 2006, 3,3-difluoro-2-methylbutan-2-yl ((2R,6S,7S,9R,13aS,14aR,16aS,Z)-2-((7-fluoro-6-methoxyisoquinolin-1-yl)oxy)-7,9-dimethyl-14a-(((1-methylcyclopropyl)sulfonyl)carbamoyl)-5,16-dioxo-2,3,5,6,7,9,10,11,13a,14,14a,15,16,16a-tetradecahydro-1H-cyclopropa[i]pyrrolo[1,2-e][1,5,8]oxadiazacyclopentadecin-6-yl)carbamate]
EC50 [1]: 1.01 to 5 nM | EC50 [2]: 0.1 to 0.5 nM
